Data as given in article PMC9988962 (Scientific Reports, 2023).
In brackets after ≈: the same amount, converted by molar mass. Residues, ends and D or L forms follow the SMILES beside them. *: point of attachment. NH(β-GlcNAc) = CC(=O)N[C@@H]1[C@@H](O)[C@H](O)[C@@H](CO)O[C@H]1N*

Tests used:
[1] = test system: Escherichia coli ATCC 25,922; settings: for MIC after treatment with pepsin / MIC after treatment with α-chymotrypsin: E. coli ATCC 25,922, 37 °C, 15 min, then MIC; for MIC after treatment with pepsin: 100 μM peptide incubated with 100 nM pepsin; for MIC after treatment with α-chymotrypsin: 100 μM peptide incubated with 100 nM α-chymotrypsin
Protocol: (§1) Starting from a peptide stock solution, two-fold serial dilutions were sequentially carried out, accordingly to the broth microdilution method. Following over-night incubation, MIC100 values were determined as the lowest peptide concentration needed for no visible bacterial growth.
(§2) To analyze the stability of the peptides to the proteases, 100 μM of LL-III and glycosylated LL-III were incubated with 100 nM of α-chymotrypsin or pepsin at 37 °C for 15 min and then antimicrobial activity were assayed as reported above. The peptide solution without proteases was used as the control group.

[2] = test system: Escherichia coli ATCC 25,922; settings: E. coli ATCC 25,922; 200 μM peptide solution with fetal bovine serum 1:1 (v/v), 24 h, 37 °C, then MIC
Protocol: as §1
(§3) For comparison, the MIC values of untreated peptides (incubated in water) were also determined.

[3] = test system: Escherichia coli ATCC 25,922; settings: E. coli ATCC 25,922; peptide incubated in water without proteases or serum
Protocol: as §1, §2, §3

[4] = test system: Acinetobacter baumannii ATCC 17,978; assay: microbe, parasite or virus in culture
Protocol: as §1

[5] = test system: Klebsiella pneumoniae ATCC 700,603; assay: microbe, parasite or virus in culture
Protocol: as §1

[6] = test system: Escherichia coli ATCC 25,922; assay: microbe, parasite or virus in culture
Protocol: as §1

Bacillus subtilis 6633 = assay: microbe, parasite or virus in culture
Protocol: as §1

MRSA WKZ-2 = assay: microbe, parasite or virus in culture
Protocol: as §1

[7] = test system: Staphylococcus aureus ATCC 29,213; assay: microbe, parasite or virus in culture
Protocol: as §1

[8] = test system: Pseudomonas aeruginosa 01; assay: microbe, parasite or virus in culture
Protocol: as §1

[9] = test system: Bacillus globigii TNO BMO13; assay: microbe, parasite or virus in culture
Protocol: as §1

[10] = test system: BALB/c 3T3 cells (normal murine fibroblasts); settings: BALB/c 3T3, two-fold dilutions of peptide, 24 h, 37 °C, 5% CO2, three independent experiments
Protocol: In brief, 5·10^3 cells were seeded on a 96-well plate and after 16 h treated with increasing concentrations of peptides for 24 h at 37 °C and 5% CO2. Cell viability was analyzed by performing the (3-(4,5-dimethylthiazol-2-yl)-2,5 diphenyltetrazolium bromide) reduction inhibition assay (MTT assay)[42].
Normal and transformed murine fibroblasts, 3T3 and SVT2, were treated with increasing concentration of the two peptides. After 24 h of incubation at 37 °C and 5% CO2, cells mitochondrial activity was measured performing MTT assay.

[11] = Acinetobacter baumannii ATCC 17,978, 1 × 10^6 CFU/mL, 0.5X Nutrient Broth, over-night, MIC100
[12] = Klebsiella pneumoniae ATCC 700,603, 1 × 10^6 CFU/mL, 0.5X Nutrient Broth, over-night, MIC100
[13] = Escherichia coli ATCC 25,922, 1 × 10^6 CFU/mL, 0.5X Nutrient Broth, over-night, MIC100
[14] = Bacillus subtilis 6633, 1 × 10^6 CFU/mL, 0.5X Nutrient Broth, over-night, MIC100
[15] = MRSA WKZ-2, 1 × 10^6 CFU/mL, 0.5X Nutrient Broth, over-night, MIC100
[16] = Staphylococcus aureus ATCC 29,213, 1 × 10^6 CFU/mL, 0.5X Nutrient Broth, over-night, MIC100
[17] = Pseudomonas aeruginosa 01, 1 × 10^6 CFU/mL, 0.5X Nutrient Broth, over-night, MIC100
[18] = Bacillus globigii TNO BMO13, 1 × 10^6 CFU/mL, 0.5X Nutrient Broth, over-night, MIC100
[19] = from MIC values against E. coli after 15 min at 37 °C with protease

SMILES	MIC after treatment with pepsin [1] [µM]	MIC after treatment with α-chymotrypsin [1] [µM]	MIC after treatment with 50% FBS [2] [µM]	MIC after treatment in water (control) [3] [µM]	MIC [4, 11] [µM]	MIC [5, 12] [µM]	MIC [6, 13] [µM]	MIC (Bacillus subtilis 6633; [14]) [µM]	MIC (MRSA WKZ-2; [15]) [µM]	MIC [7, 16] [µM]	MIC [8, 17] [µM]	MIC [9, 18] [µM]	other results
CC[C@H](C)[C@H](NC(=O)[C@H](CCCCN)NC(=O)[C@H](CCCCN)NC(=O)[C@H](Cc1c[nH]c2ccccc12)NC(=O)[C@H](CC(N)=O)NC(=O)[C@@H](N)C(C)C)C(=O)N[C@@H](CC(C)C)C(=O)NCC(=O)N[C@@H](CCCCN)C(=O)N[C@H](C(=O)N[C@H](C(=O)N[C@@H](CCCCN)C(=O)N[C@H](C(=O)N[C@H](C(=O)N[C@@H](CCCCN)C(N)=O)C(C)C)C(C)C)[C@@H](C)CC)[C@@H](C)CC [LL-III, Lasioglossin III] (H-VNWKKILGKIIKVVK-NH2)	12.5	25	6.25	3.12 (≈ 5.51 µg/mL)	3.12 (≈ 5.51 µg/mL)	3.12 (≈ 5.51 µg/mL)	3.12 (≈ 5.51 µg/mL)	1.56 (≈ 2.75 µg/mL)	3.12 (≈ 5.51 µg/mL)	1.56 (≈ 2.75 µg/mL)	1.56 (≈ 2.75 µg/mL)	1.56 (≈ 2.75 µg/mL)	
O=C(O)c1cn(C2CC2)c2cc(N3CCNCC3)c(F)cc2c1=O [Ciprofloxacin]													MIC ([4]; Acinetobacter baumannii): 0.15 µM (≈ 0.0497 µg/mL); MIC ([5]; Klebsiella pneumoniae): 1.2 µM (≈ 0.398 µg/mL); MIC ([6]; Escherichia coli): 0.15 µM (≈ 0.0497 µg/mL); MIC (Bacillus subtilis 6633; Bacillus subtilis, 6633): 0.15 µM (≈ 0.0497 µg/mL); MIC (MRSA WKZ-2; Staphylococcus aureus, MRSA): 0.3 µM (≈ 0.0994 µg/mL); MIC ([7]; Staphylococcus aureus, ATCC29): 0.6 µM (≈ 0.199 µg/mL); MIC ([8]; Pseudomonas aeruginosa, 01): 0.3 µM (≈ 0.0994 µg/mL); MIC ([9]; Bacillus subtilis, TNOBMO13): 0.3 µM (≈ 0.0994 µg/mL)
CC[C@H](C)[C@H](NC(=O)[C@H](CCCCN)NC(=O)[C@H](CCCCN)NC(=O)[C@H](Cc1c[nH]c2ccccc12)NC(=O)[C@H](CC(=O)N[C@@H]1O[C@H](CO)[C@@H](O)[C@H](O)[C@H]1NC(C)=O)NC(=O)[C@@H](N)C(C)C)C(=O)N[C@@H](CC(C)C)C(=O)NCC(=O)N[C@@H](CCCCN)C(=O)N[C@H](C(=O)N[C@H](C(=O)N[C@@H](CCCCN)C(=O)N[C@H](C(=O)N[C@H](C(=O)N[C@@H](CCCCN)C(N)=O)C(C)C)C(C)C)[C@@H](C)CC)[C@@H](C)CC [g-LL-III] (H-VD(NH(β-GlcNAc))WKKILGKIIKVVK-NH2)	6.25	6.25	3.12	3.12 (≈ 6.14 µg/mL)	3.12 (≈ 6.14 µg/mL)	3.12 (≈ 6.14 µg/mL)	3.12 (≈ 6.14 µg/mL)	1.56 (≈ 3.07 µg/mL)	3.12 (≈ 6.14 µg/mL)	1.56 (≈ 3.07 µg/mL)	3.12 (≈ 6.14 µg/mL)	1.56 (≈ 3.07 µg/mL)	reduction of susceptibility to pepsin versus parental peptide [1, 19]: 2 times; reduction of susceptibility to α-chymotrypsin versus parental peptide [1, 19]: 4 times; cell viability (MTT), g-LL-III compared with LL-III [10]: no significant differences
